Consider ten molecules from PubChem BioAssay AID588512 (NMMLSC, 2011).

This test deals with HEK-293 viability, CellTiter-Glo ATP luminescence, 3 days. Briefly: HEK-293 cell cytotoxicity, late-stage follow-up, cytotoxicity control for GRK2 aptamer-displacement inhibitor project, powder set 1 (AID 588512). Particulars: at 20 µM; hits give low values.

Activity calls are given as the source filed them.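 The calls were made as follows: active = viability below 80%, counted as toxic; inactive = the rest.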

By viability is commonly meant a read-out of living cells in per cent, often relative to untreated cells. Turning to `Cc1cc(=O)[nH]c(SCC(=O)NCc2ccco2)n1`, the viability is 69.3%. Take `Cc1ccccc1NC(=O)CCS(=O)(=O)c1ccc(Br)cc1`: the viability is 128% (inactive). To `O=C(O)C1CC(=O)N(c2ccc3c(c2)OCCO3)C1` (stereo not given) belongs 133% (inactive); to `COc1ccc(CNC(=O)CCS(=O)(=O)c2ccc(Br)cc2)cc1`, 95.2% (inactive). To `Cc1cccc(N2CCN(C(=O)CCS(=O)(=O)c3ccc(Br)cc3)CC2C)c1` (stereo not given) belongs 113% (inactive); to `O=C(CCS(=O)(=O)c1ccc(Br)cc1)NCCc1ccc(Cl)cc1`, 124% (inactive).

Turning to `O=C(CCS(=O)(=O)c1ccc(Br)cc1)Nc1cc(F)ccc1F`, the viability is 110% (inactive). For `CCOc1ccc(CCNC(=O)CCS(=O)(=O)c2ccc(Br)cc2)cc1OCC`, the viability was 123% (inactive). To `Cc1cc2ccccc2n1CCNC(=O)c1cccs1` belongs 109% (inactive); to `CCc1ccccc1NC(=O)CCS(=O)(=O)c1ccc(Br)cc1`, 82.6% (inactive).
